Drawing on patent US20110052534A1, “Imidazopyridazine Compounds for Treating Viral Infections” (priority 2009, published 2011), this text covers EC50 and CC50 for 8 compounds.

SMILES strings stand for the structures. Structures can show the parent of a compound that is named as a salt. Where two headings read alike, the source gives them in different places. Bounds are passed on as bounds.

Assay type in all cases: cell-based
Series [1] concerns HCV genotype 1a H77 NS3-5B bicistronic subgenomic replicon. The experiment in a line: microbe, parasite or virus in culture. Particulars: Hepatitis C virus, luciferase activity after 48 hours, read-out: HCV Genotype 1A Replicon EC50. The text has this: (§1) Two cell lines were used for screening of compounds for inhibiting HCV RNA replication (genoytype 1a and 1b). Genotype la replicon cells, are a Huh-7 derived cell line bearing the genotype 1a H77NS3-5B bicistronic subgenomic replicon. See, Blight, et al., J. Virol. (2003) 77(5): 3181-3190.
(§2) The genotype 1a replicon contains several adaptive mutations (NS4B Q31H, NS5A K68R, NS5A S232I), the luciferase gene and encodes for neomycin resistance. The genotype 1b replicon, also referred to as the ET replicon, is stably transfected with RNA transcripts harboring a I389luc-ubi-neo/NS3-3′/ET replicon with firefly luciferase-ubiquitin-neomycin phosphotransferase fusion protein and EMCV-IRES driven NS3-5B polyprotein containing the cell culture adaptive mutations (E1202G; T12801; K1846T) See, Kreiger, et al., Journal of Virology 75:4614-4624 (2001). Both cell lines were grown in DMEM, supplemented with 10% fetal calf serum, 2 mM Glutamine, Penicillin (100 IU/mL)/Streptomycin (100 μg/mL), 1×nonessential amino acids, and 250 μg/mL G418 (“Geneticin”). They were all available through Life Technologies (Bethesda, Md.). The cells were plated at 0.5×10^4 cells/well in 384 well plates containing compounds. The final concentration of compounds ranged between 0.1 nM to 50 μM and the final DMSO concentration of 0.5%.
(§3) Luciferase activity was measured 48 hours later by adding a Steady glo (Promega, Madison, Wis.). Percent inhibition of replication data was plotted relative to no compound control. Under the same condition, cytotoxicity of the compounds was determined using cell titer glo (Promega, Madison, Wis.). EC50 values were determined from a 10 point dose response curve using 2-4 fold serial dilutions for each compound, which spans a concentration range of at least a 1000 fold. Replicon EC50 values, the concentration of compound required to inhibit 50% of the assay response, were calculated by curve fitting data to the Hill equation, using a non-linear least-squares curve-fitting program. The software tested the data for quality and rejected compounds with high and low activity before fitting the equation below.
(§4) Analysis was performed using an XC50 module and BioAssay Enterprise (Cambridge Soft).
A general note: A replicon is a self-replicating genome or part of one, used to study replication in cells.

The test system of series [2] is HCV genotype 1b replicon (ET replicon). The experiment in a line: microbe, parasite or virus in culture. Particulars: Hepatitis C virus, luciferase activity after 48 hours, read-out: HCV Genotype 1B Replicon EC50.
Source text: as §1, §2, §3, §4

Series [3] in a line: in vitro. Particulars: human; Table 3; cytotoxicity, cell titer glo, same condition as replicon assay; read-out: HCV Genotype 1B CC50.
Source text: as §2, §3

As usually defined, the EC50 is the concentration needed to bring the measured effect to its halfway point. Usually CC50 stands for the concentration at which the toxic effect on the cells reaches its halfway point. Regarding `COC(=O)C(c1cc(-c2ccc(C3CC3)cc2C(F)(F)F)no1)n1cc2nc(-c3cccc(F)c3F)nc-2cn1` (stereo not drawn) [Compound 178, Methyl {3-[4-cyclopropyl-2-(trifluoromethyl)phenyl]-5-isoxazolyl}[2-(2,3-difluorophenyl)-5H-imidazo[4,5-d]pyridazin-5-yl]acetate], the EC50 in series [1] (Table 3) came to 50 nM; in series [2] (Table 3) it was 10 nM. For the same compound, in series [3], the CC50 was determined as 25000 nM.
The like results for `O=C(OCCOCCO)C(c1cc(-c2ccc(C3CC3)cc2C(F)(F)F)no1)n1cc2nc(-c3cccc(F)c3F)nc-2cn1` (stereo not drawn) [Compound 179, 2-[(2-hydroxyethyl)oxy]ethyl {3-[4-cyclopropyl-2-(trifluoromethyl)phenyl]-5-isoxazolyl}[2-(2,3-difluorophenyl)-5H-imidazo[4,5-d]pyridazin-5-yl]acetate] were, in that order, 79 nM, 13 nM and 50000 nM.
For `O=C(OCCCOP(=O)(O)O)C(c1cc(-c2ccc(C3CC3)cc2C(F)(F)F)no1)n1cc2nc(-c3cccc(F)c3F)nc-2cn1` (stereo not drawn) [Compound 186, 3-(phosphonooxy)propyl {3-[4-cyclopropyl-2-(trifluoromethyl)phenyl]-5-isoxazolyl}[2-(2,3-difluorophenyl)-5H-imidazo[4,5-d]pyridazin-5-yl]acetate], in that order: 79 nM, 10 nM and 50000 nM.
In the case of `O=C(OCCCO)C(c1cc(-c2ccc(C3CC3)cc2C(F)(F)F)no1)n1cc2nc(-c3cccc(F)c3F)nc-2cn1` (stereo not drawn) [Compound 182, 3-Hydroxypropyl {3-[4-cyclopropyl-2-(trifluoromethyl)phenyl]-5-isoxazolyl}[2-(2,3-difluorophenyl)-5H-imidazo[4,5-d]pyridazin-5-yl]acetate], the EC50 in series [1] (Table 3) was determined as 63 nM; in series [2] (Table 3) it was 13 nM. Moreover, in series [3], the CC50 was greater than 50000 nM.
For the compound `CCCOc1ccc(-c2ccc(C(C(=O)OC)n3cc4nc(-c5cccc(F)c5F)nc-4cn3)cn2)c(C(F)(F)F)c1` (stereo not drawn) [Compound 39, Methyl [2-(2,3-difluorophenyl)-5H-imidazo[4,5-d]pyridazin-5-yl]{6-[4-(propyloxy)-2-(trifluoromethyl)phenyl]-3-pyridinyl}acetate], the EC50 came to 9440 nM in series [1] (Table 2) and 800 nM in series [2] (Table 2).
`CCCOC(=O)C(c1ccc(-c2ccc(OCCC)cc2C(F)(F)F)nc1)n1cc2nc(-c3cccc(F)c3F)nc-2cn1` (stereo not drawn) [Compound 41, Propyl [2-(2,3-difluorophenyl)-5H-imidazo[4,5-d]pyridazin-5-yl]{6-[4-(propyloxy)-2-(trifluoromethyl)phenyl]-3-pyridinyl}acetate]: the concentration for a half-maximal effect (EC50) in series [1] (Table 2) was 900 nM; in series [2] (Table 2), 2700 nM.
For `CCCOc1ccc(-c2cc(C(C(=O)OCCCCN(C)C)n3cc4nc(-c5cccc(F)c5F)nc-4cn3)on2)c(C(F)(F)F)c1` (stereo not drawn) [Compound 173, 4-(Dimethylamino)butyl [2-(2,3-difluorophenyl)-5H-imidazo[4,5-d]pyridazin-5-yl]{3-[4-(propyloxy)-2-(trifluoromethyl)phenyl]-5-isoxazolyl}acetate dihydrochloride], in that order: 20 nM and 3 nM.
As for `CCCOC(=O)C(c1cc(-c2ccc(C3CC3)cc2C(F)(F)F)no1)n1cc2nc(-c3cccc(F)c3F)nc-2cn1` (stereo not drawn) [Compound 184, Propyl {3-[4-cyclopropyl-2-(trifluoromethyl)phenyl]-5-isoxazolyl}[2-(2,3-difluorophenyl)-5H-imidazo[4,5-d]pyridazin-5-yl]acetate], the EC50 in series [1] (Table 3) is 79 nM; in series [2] (Table 3) it was 13 nM. Further, the CC50 in series [3] turned out to be 25000 nM.
